Laboratory results reported in patent US11661397B2, “1,4-disubstituted imidazole derivative” (Sumitomo Pharma Co., Ltd., priority 2015, dated 2023).
Values joined by “and” are separate entries in the source; they are usually repeats but may differ in a detail not shown here. Equal entries are not always repeated.

How the values were obtained:
[1] = test system: HCT-116 tumor-bearing mouse; assay: Anti-tumor effect to HCT-116 tumor-bearing mouse (Test Example 4); format: in vivo; conditions: nude mouse, oral
Text: The present compound can be used to evaluate the anti-tumor effect thereof. A 4 to 7-week-old nude mouse (BALB/cAnNCrj-nu/nu, female, CHARLES RIVER LABORATORIES JAPAN, INC.) received intradermal transplantation of HCT-116 cells (ATCC) in an amount of 3×10^6 cells/mouse around the ventral portion. The engraftment of HCT-116 cells was observed 5 to 14 days after the transplantation, and then each compound suspended in a solvent such as 0.5% methylcellulose solution was orally administrated to the mouse in a dose of 1 to 100 mg/kg one to twice daily. The tumor volume was measured over time after the administration to evaluate the effect for reducing the tumor volume by the administration of each compound. The tumor volume can be calculated from the minor axis and the major axis of the tumor measured with a digital caliper (Mitutoyo) according to the following formula: Tumor volume [mm^3]=0.5×minor axis [mm]×(major axis [mm])^2
The tumor volume in control administration group treated with only a solvent such as 0.5% methylcellulose solution was compared with that of the present compound administration group, and T/C value was calculated according the following formula to evaluate the anti-tumor effect of the present compound. T/C (%)=(the tumor volume at the end of administration in the present compound administration group−the tumor volume at the start of administration in the present compound administration group)/(the tumor volume at the end of administration in the control administration group−the tumor volume at the start of administration in the […] administration group)×100
The T/C values (%) of the present compound on each dosage and administration period in the HCT-116 tumor-bearing mouse are shown below.

HCT-116 cells [2] = assay: Test for inhibiting sphere-forming ability of cancer cells in the presence of BSA (Test Example 2); format: cell-based; conditions: Homo sapiens, 96 h; HCT-116 spheres, 5% bovine serum albumin (BSA), 4 days, CellTiter-Glo; read-out: Sphere IC50 value (concentration for 50% inhibition of cell proliferation)
Protocol: (§1) HCT-116 cells were available from the American Type Culture Collection (ATCC). HCT-116 cells were cultured at 37° C. and 5% CO2 using the McCoy's 5a medium containing 10% fetal bovine serum (FBS) and 1% penicillin/streptomycin. […] The test compounds were added into each well to adjust the final concentration of DMSO to 0.1%, and the cells were cultured for 4 days.

HCT-116 cells [3] = assay: Inhibition of sphere-forming ability of cancer cells (Test Example 1); format: cell-based; conditions: Homo sapiens, 96 h; HCT-116 spheres, non-adherent, serum-free, 4 days, CellTiter-Glo; read-out: Sphere IC50 value (concentration for 50% inhibition of cell proliferation)
Protocol: as §1

[4] = dosage 100 mg/kg, administration period 17 days
[5] = dosage 30 mg/kg, administration period 17 days

Structure (SMILES): Nc1cc(C(=O)Nc2cn(Cc3cc(F)c(F)c(F)c3)cn2)cnc1CO [Example 46, 5-Amino-6-(hydroxymethyl)-N-[1-(3,4,5-trifluorobenzyl)-1H-imidazol-4-yl]nicotinamide]
- T/C (%) [1, 4]: 91%
- IC50 (HCT-116 cells [2]): 57 nM
- IC50 (HCT-116 cells [3]): 10 nM

Structure (SMILES): Cc1cc(C(=O)Nc2cn(Cc3cc(F)c(F)c(F)c3)cn2)cnc1CO [Example 39, 6-(hydroxymethyl)-5-methyl-N-[1-(3,4,5-trifluorobenzyl)-1H-imidazol-4-yl]nicotinamide]
- T/C (%) [1, 5]: 79%
- T/C (%) [1, 4]: 65%
- IC50 (HCT-116 cells [2]): < 10 nM
- IC50 (HCT-116 cells [3]): < 10 nM

Structure (SMILES): Nc1cc(C(=O)Nc2cn(Cc3cccc(C(F)(F)F)c3)cn2)cnc1CO [Example 45, 5-Amino-6-(hydroxymethyl)-N-{1-[3-(trifluoromethyl)benzyl]-1H-imidazol-4-yl}nicotinamide]
- T/C (%) [1, 5]: 90% and 91%
- T/C (%) [1, 4]: 81%
- IC50 (HCT-116 cells [2]): 59 nM
- IC50 (HCT-116 cells [3]): 29 nM

Structure (SMILES): O=C(Nc1cn(Cc2cccc(C(F)(F)F)c2)cn1)c1cnc(CO)c(C(F)F)c1 [Example 17, 5-(difluoromethyl)-6-(hydroxymethyl)-N-{1-[3-(trifluoromethyl)benzyl]-1H-imidazol-4-yl}nicotinamide]
- T/C (%) [1, 5]: 74%
- T/C (%) [1, 4]: 75%
- IC50 (HCT-116 cells [2]): 57 nM
- IC50 (HCT-116 cells [3]): < 10 nM

Structure (SMILES): Cc1cc(C(=O)Nc2cn(Cc3cccc(C(F)(F)F)c3)cn2)cnc1CO [Example 42, 6-(Hydroxymethyl)-5-methyl-N-{1-[3-(trifluoromethyl)benzyl]-1H-imidazol-4-yl}nicotinamide]
- IC50 (HCT-116 cells [2]): 60 nM
- IC50 (HCT-116 cells [3]): < 10 nM

Structure (SMILES): O=C(Nc1cn(Cc2cc(F)cc(C(F)(F)F)c2)cn1)c1cnc(CO)c(C(F)F)c1 [Example 60, 5-(difluoromethyl)-N-{1-[3-fluoro-5-(trifluoromethyl)benzyl]-1H-imidazol-4-yl}-6-(hydroxymethyl)nicotinamide]
- IC50 (HCT-116 cells [2]): 60 nM
- IC50 (HCT-116 cells [3]): 30 nM

Structure (SMILES): O=C(Nc1cn(Cc2cc(F)cc(F)c2)cn1)c1cnc(CO)c(C(F)F)c1 [Example 79, N-[1-(3,5-difluorobenzyl)-1H-imidazol-4-yl]-5-(difluoromethyl)-6-(hydroxymethyl)nicotinamide]
- IC50 (HCT-116 cells [2]): 60 nM
- IC50 (HCT-116 cells [3]): 80 nM

Structure (SMILES): O=C(Nc1nc(CO)cs1)c1cn(Cc2cc(F)c(F)c(F)c2)cn1 [Example 3]
- IC50 (HCT-116 cells [2]): 51 nM
- IC50 (HCT-116 cells [3]): < 10 nM

Structure (SMILES): O=C(Nc1cn(Cc2ccc(Cl)c(F)c2)cn1)c1cnc(CO)c(C(F)F)c1 [Example 66, N-[1-(4-chloro-3-fluorobenzyl)-1H-imidazol-4-yl]-5-(difluoromethyl)-6-(hydroxymethyl)nicotinamide]
- IC50 (HCT-116 cells [2]): 60 nM
- IC50 (HCT-116 cells [3]): 70 nM

Structure (SMILES): CC(C)(O)c1ccc(/C=C/C(=O)Nc2cn(Cc3cccc(C(F)(F)F)c3)cn2)cn1 [Example 53, (2E)-3-[6-(2-Hydroxypropan-2-yl)pyridin-3-yl]-N-{1-[3-(trifluoromethyl)benzyl]-1H-imidazol-4-yl}prop-2-enamide]
- IC50 (HCT-116 cells [2]): < 10000 nM
- IC50 (HCT-116 cells [3]): 7200 nM

Structure (SMILES): O=C(Nc1cn(Cc2cc(F)c(F)c(F)c2)cn1)c1cnc(CO)c(C(F)F)c1 [Example 18, 5-(difluoromethyl)-6-(hydroxymethyl)-N-[1-(3,4,5-trifluorobenzyl)-1H-imidazol-4-yl]nicotinamide]
- T/C (%) [1, 5]: 63%
- T/C (%) [1, 4]: 54%
- IC50 (HCT-116 cells [2]): 53 nM
- IC50 (HCT-116 cells [3]): < 10 nM

Structure (SMILES): O=C(Nc1cn(Cc2cccc(C(F)(F)F)c2)cn1)c1cnc(C(O)CO)c(Br)c1 (centres unmarked) [Example 29]
- IC50 (HCT-116 cells [2]): 3500 nM
- IC50 (HCT-116 cells [3]): 633 nM

Structure (SMILES): CCc1cc(C(=O)Nc2cn(Cc3cccc(C(F)(F)F)c3)cn2)cnc1CO [Example 44, 5-Ethyl-6-(hydroxymethyl)-N-{1-[3-(trifluoromethyl)benzyl]-1H-imidazol-4-yl}nicotinamide]
- IC50 (HCT-116 cells [2]): 5110 nM
- IC50 (HCT-116 cells [3]): 758 nM

Structure (SMILES): O=C(Nc1cn(Cc2cc(F)c(F)c(F)c2)cn1)c1ccc(CO)nc1 [Example 10, 6-(Hydroxymethyl)-N-[1-(3,4,5-trifluorobenzyl)-1H-imidazol-4-yl]nicotinamide]
- IC50 (HCT-116 cells [2]): 7 nM
- IC50 (HCT-116 cells [3]): 7 nM

Structure (SMILES): O=C(Nc1cn(Cc2cccc(C(F)(F)F)c2)cn1)c1cnc(C(O)CO)c(F)c1 (centres unmarked) [Example 27]
- IC50 (HCT-116 cells [2]): 6230 nM
- IC50 (HCT-116 cells [3]): 695 nM

Structure (SMILES): O=C(Nc1cn(Cc2cc(F)c(F)c(F)c2)cn1)c1csc(CO)n1 [Example 8]
- IC50 (HCT-116 cells [2]): 578 nM
- IC50 (HCT-116 cells [3]): 77 nM

Structure (SMILES): O=C(Nc1cn(Cc2cccc(C(F)(F)F)c2)cn1)c1cnc(CO)c(F)c1 [Example 30, 5-Fluoro-6-(hydroxymethyl)-N-{1-[3-(trifluoromethyl)benzyl]-1H-imidazol-4-yl}nicotinamide]
- IC50 (HCT-116 cells [2]): 563 nM
- IC50 (HCT-116 cells [3]): 69 nM

Structure (SMILES): O=C(Nc1cn(Cc2cccc(C(F)(F)F)c2)cn1)c1csc(CO)n1 [Example 7]
- IC50 (HCT-116 cells [2]): 520 nM
- IC50 (HCT-116 cells [3]): 24 nM

Structure (SMILES): Cc1cc(CO)ncc1C(=O)Nc1cn(Cc2cccc(C(F)(F)F)c2)cn1 [Example 35]
- IC50 (HCT-116 cells [2]): 6110 nM
- IC50 (HCT-116 cells [3]): 3760 nM

Structure (SMILES): O=C(Nc1cn(Cc2cccc(C(F)(F)F)c2)cn1)c1cnc(CO)cc1Cl [Example 36]
- IC50 (HCT-116 cells [2]): 481 nM
- IC50 (HCT-116 cells [3]): 74 nM

Structure (SMILES): O=C(Nc1cn(Cc2cccc(C(F)(F)F)c2)cn1)c1cnc(CO)c(Cl)c1 [Example 31]
- IC50 (HCT-116 cells [2]): < 10 nM
- IC50 (HCT-116 cells [3]): < 10 nM

Structure (SMILES): C=C(CO)c1ccc(C(=O)Nc2cn(Cc3cccc(C(F)(F)F)c3)cn2)cn1 [Example 15]
- IC50 (HCT-116 cells [2]): 5770 nM
- IC50 (HCT-116 cells [3]): 710 nM

Structure (SMILES): Cc1nc(C(=O)Nc2cn(Cc3cc(F)c(F)c(F)c3)cn2)sc1CO [Example 48, 5-(Hydroxymethyl)-4-methyl-N-[1-(3,4,5-trifluorobenzyl)-1H-imidazol-4-yl]-1,3-thiazole-2-carboxamide]
- IC50 (HCT-116 cells [2]): 571 nM
- IC50 (HCT-116 cells [3]): 95 nM

Structure (SMILES): O=C(Nc1cn(Cc2cccc(C(F)(F)F)c2)cn1)c1ccc(CO)nc1 [Example 12, 6-(hydroxymethyl)-N-{1-[3-(trifluoromethyl)benzyl]-1H-imidazol-4-yl}nicotinamide]
- T/C (%) ([1]; dosage 100 mg/kg, administration period 16 days): 49%
- IC50 (HCT-116 cells [2]): 60 nM
- IC50 (HCT-116 cells [3]): < 10 nM

Structure (SMILES): O=C(Nc1cn(Cc2cc(F)c(F)c(F)c2)cn1)c1cnc(CO)c(Cl)c1 [Example 41, 5-Chloro-6-(hydroxymethyl)-N-[1-(3,4,5-trifluorobenzyl)-1H-imidazol-4-yl]nicotinamide]
- IC50 (HCT-116 cells [2]): 59 nM
- IC50 (HCT-116 cells [3]): 51 nM

Structure (SMILES): O=C(Nc1cn(Cc2cccc(C(F)(F)F)c2)cn1)c1cc(CO)on1 [Example 21]
- IC50 (HCT-116 cells [2]): 767 nM
- IC50 (HCT-116 cells [3]): 653 nM

Structure (SMILES): O=C(/C=C/c1cnc(CO)c(Cl)c1)Nc1cn(Cc2cccc(C(F)(F)F)c2)cn1 [Example 52]
- IC50 (HCT-116 cells [2]): 410 nM
- IC50 (HCT-116 cells [3]): 50 nM

Structure (SMILES): O=C(Nc1cn(Cc2cccc(C(F)(F)F)c2)cn1)c1cnc(CO)c(Br)c1 [Example 32]
- IC50 (HCT-116 cells [2]): 68 nM
- IC50 (HCT-116 cells [3]): < 10 nM

Structure (SMILES): NCc1ccc(C(=O)Nc2cn(Cc3cccc(C(F)(F)F)c3)cn2)cn1 [Example 24, 6-(Aminomethyl)-N-{1-[3-(trifluoromethyl)benzyl]-1H-imidazol-4-yl}nicotinamide ditrifluoroacetate]
- IC50 (HCT-116 cells [2]): 696 nM
- IC50 (HCT-116 cells [3]): 61 nM
